Our source for the Ratio IC50 and IC50 values is ChEMBL document CHEMBL4325904 (Eur J Med Chem, 2019).

Bounds are passed on as bounds.

The species named for experiment [1] is Homo sapiens. Kind of experiment: Selectivity ratio of IC50 for human HDAC10 to IC50 for recombinant N-terminal GST-tagged human HDAC6 (1 to 1215 residues).
For experiment [2], the target named is T1, Protein deacetylase HDAC6 (Homo sapiens, UniProt Q9UBN7).
T1 sequence (Q9UBN7 whole entry): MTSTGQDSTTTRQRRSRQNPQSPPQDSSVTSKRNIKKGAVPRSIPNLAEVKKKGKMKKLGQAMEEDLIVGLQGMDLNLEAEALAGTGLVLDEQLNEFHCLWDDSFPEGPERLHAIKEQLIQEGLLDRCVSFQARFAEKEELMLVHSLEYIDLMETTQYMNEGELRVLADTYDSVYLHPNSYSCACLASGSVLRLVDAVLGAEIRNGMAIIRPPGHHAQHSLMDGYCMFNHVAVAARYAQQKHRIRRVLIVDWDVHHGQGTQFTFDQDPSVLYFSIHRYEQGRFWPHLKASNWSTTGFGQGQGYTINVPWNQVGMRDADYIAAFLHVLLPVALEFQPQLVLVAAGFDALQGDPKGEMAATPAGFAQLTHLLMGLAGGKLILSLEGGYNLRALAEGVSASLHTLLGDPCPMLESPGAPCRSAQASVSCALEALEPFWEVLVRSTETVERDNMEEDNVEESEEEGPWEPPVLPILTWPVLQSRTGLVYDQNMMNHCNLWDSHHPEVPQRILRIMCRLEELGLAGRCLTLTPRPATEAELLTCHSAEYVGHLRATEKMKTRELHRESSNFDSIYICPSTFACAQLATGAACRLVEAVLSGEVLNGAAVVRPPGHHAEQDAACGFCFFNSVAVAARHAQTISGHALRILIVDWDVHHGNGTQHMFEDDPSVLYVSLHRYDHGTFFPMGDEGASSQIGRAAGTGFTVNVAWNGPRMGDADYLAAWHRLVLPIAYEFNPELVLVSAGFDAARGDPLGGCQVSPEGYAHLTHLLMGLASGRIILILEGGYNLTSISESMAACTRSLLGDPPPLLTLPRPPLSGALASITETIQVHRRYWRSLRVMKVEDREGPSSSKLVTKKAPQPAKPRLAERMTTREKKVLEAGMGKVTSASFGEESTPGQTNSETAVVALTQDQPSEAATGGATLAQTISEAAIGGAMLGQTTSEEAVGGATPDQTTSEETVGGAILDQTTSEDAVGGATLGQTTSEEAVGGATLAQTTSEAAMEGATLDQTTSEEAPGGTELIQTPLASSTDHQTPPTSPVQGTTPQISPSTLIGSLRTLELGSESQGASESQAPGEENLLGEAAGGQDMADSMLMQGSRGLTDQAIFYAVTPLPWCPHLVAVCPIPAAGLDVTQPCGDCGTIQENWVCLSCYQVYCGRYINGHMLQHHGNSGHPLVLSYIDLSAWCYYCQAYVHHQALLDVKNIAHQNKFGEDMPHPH
Kind of experiment: Inhibition of recombinant N-terminal GST-tagged human HDAC6 (1 to 1215 residues) expressed in Baculovirus infected insect cells using RHKK-Ac as substrate by fluorimetric assay.

For experiment [3], the target named is Histone deacetylase 9 (Homo sapiens, UniProt Q9UKV0). The experiment can be described thus: Inhibition of human HDAC9 using Boc-Lys(trifluoroacetyl)-AMC as substrate by fluorimetric assay.
Sequence of Histone deacetylase 9 (Q9UKV0 whole entry): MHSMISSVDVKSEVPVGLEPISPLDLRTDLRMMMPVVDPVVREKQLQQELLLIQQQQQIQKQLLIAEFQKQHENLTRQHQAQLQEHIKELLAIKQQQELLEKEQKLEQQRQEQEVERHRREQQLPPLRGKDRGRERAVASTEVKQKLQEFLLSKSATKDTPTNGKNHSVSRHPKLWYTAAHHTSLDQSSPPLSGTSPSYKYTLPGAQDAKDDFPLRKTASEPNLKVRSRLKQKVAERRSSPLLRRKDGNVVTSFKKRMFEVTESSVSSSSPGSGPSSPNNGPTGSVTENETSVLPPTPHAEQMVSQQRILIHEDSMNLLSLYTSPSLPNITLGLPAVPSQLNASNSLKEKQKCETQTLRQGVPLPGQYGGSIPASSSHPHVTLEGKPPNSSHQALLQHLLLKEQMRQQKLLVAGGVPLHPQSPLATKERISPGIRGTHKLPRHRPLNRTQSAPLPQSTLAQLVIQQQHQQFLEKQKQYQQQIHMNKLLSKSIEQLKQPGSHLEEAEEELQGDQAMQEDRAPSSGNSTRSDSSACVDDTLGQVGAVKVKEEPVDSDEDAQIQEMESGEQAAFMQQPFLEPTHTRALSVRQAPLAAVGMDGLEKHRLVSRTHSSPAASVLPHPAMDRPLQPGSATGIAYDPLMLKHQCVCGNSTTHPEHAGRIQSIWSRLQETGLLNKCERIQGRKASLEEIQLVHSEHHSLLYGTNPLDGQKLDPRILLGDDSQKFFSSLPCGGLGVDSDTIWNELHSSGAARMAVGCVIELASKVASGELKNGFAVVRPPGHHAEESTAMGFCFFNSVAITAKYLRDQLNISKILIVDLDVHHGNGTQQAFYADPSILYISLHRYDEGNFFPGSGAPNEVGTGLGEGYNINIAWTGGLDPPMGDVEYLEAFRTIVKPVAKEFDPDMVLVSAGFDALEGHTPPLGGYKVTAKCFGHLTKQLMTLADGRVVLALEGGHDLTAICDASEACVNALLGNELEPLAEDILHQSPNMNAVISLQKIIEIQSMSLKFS
The target in experiment [4] is T2, Histone deacetylase 11 (Homo sapiens, UniProt Q96DB2).
T2 sequence (Q96DB2 whole entry): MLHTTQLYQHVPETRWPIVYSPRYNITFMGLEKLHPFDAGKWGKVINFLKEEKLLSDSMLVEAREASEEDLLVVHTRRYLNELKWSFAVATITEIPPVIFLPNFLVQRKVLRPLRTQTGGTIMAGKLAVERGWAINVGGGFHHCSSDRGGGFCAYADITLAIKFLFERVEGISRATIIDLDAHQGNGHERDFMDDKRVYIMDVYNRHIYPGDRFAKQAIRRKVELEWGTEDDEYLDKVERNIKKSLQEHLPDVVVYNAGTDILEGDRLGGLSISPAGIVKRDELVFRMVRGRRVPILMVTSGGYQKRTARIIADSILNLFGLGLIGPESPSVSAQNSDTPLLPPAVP
Kind of experiment: Inhibition of recombinant C-terminal His-tagged human HDAC11 (1 to 347 residues) expressed in Baculovirus infected insect cells using RHKK-Ac as substrate by fluorimetric assay.

Experiment [5] is filed under the species Homo sapiens. Kind of experiment: Selectivity ratio of IC50 for human recombinant full length C-terminal His-tagged HDAC3 (1 to 428 residues)/N-terminal GST-tagged NCOR2 (395 to 489 residues) to IC50 for recombinant N-terminal GST-tagged human HDAC6 (1 to 1215 residues).
The target in experiment [6] is T3, Histone deacetylase 7 (Homo sapiens, UniProt Q8WUI4).
T3 sequence (Q8WUI4 whole entry): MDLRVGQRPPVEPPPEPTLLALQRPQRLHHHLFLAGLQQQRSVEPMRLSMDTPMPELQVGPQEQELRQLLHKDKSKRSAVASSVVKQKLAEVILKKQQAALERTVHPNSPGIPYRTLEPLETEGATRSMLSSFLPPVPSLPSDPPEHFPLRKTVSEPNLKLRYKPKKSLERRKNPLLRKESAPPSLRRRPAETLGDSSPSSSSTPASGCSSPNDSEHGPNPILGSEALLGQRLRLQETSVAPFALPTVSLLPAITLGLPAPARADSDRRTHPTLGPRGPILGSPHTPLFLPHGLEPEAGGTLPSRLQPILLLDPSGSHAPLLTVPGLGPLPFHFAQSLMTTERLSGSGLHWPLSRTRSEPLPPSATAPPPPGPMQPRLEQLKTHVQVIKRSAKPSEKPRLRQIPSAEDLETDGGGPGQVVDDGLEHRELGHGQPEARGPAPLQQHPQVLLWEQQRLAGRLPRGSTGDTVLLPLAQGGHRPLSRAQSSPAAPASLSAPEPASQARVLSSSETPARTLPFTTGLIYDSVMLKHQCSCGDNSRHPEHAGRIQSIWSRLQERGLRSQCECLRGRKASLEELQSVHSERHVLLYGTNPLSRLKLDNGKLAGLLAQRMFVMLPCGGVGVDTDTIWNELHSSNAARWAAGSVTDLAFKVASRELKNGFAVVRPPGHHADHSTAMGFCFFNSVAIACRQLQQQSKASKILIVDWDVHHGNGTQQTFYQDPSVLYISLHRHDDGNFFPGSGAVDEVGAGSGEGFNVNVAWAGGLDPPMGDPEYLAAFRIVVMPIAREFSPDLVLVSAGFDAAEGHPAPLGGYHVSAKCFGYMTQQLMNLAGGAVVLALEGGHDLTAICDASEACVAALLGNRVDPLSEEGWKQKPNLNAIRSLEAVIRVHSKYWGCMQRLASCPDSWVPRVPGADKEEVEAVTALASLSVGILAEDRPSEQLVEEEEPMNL
The experiment can be described thus: Inhibition of recombinant N-terminal GST-tagged human HDAC7 (518 to 991 residues) expressed in Baculovirus infected insect cells using Boc-K(Ac)-AMC as substrate by fluorimetric assay.

As for `CCCNc1ccc2c3c(cccc13)C(=O)N(CCCCCC(=O)NO)C2=O`, the Ratio IC50 turned out to be 67 in experiment [1] and 23 in experiment [5]. The IC50 in experiment [2] was 4.8 nM; in experiment [3], over 10 µM; in experiment [4] it was 80 nM; in experiment [6], 9.4 µM.
As to `O=C(CCCCCN1C(=O)c2cccc3c(NCc4ccccc4)ccc(c23)C1=O)NO`, the Ratio IC50 was 190 in experiment [1] and 100 to 103 in experiment [5]. For the same compound, the IC50 amounted to 3.5 nM in experiment [2], 9.3 µM in experiment [3], 150 nM in experiment [4] and 3.2 µM in experiment [6].
